Consider one compound from patent publication US10259781B2, “Imaging agents” (THE REGENTS OF THE UNIVERSITY OF MICHIGAN, priority 2012, dated 2019).

A short description of this data set: In vitro incubation with monkey liver cytosol fraction and PAPS (sulfur conjugation). The format is in vitro ADME. How it is done:
The main radiometabolite formed is more polar than the parent compound, [^18F]4-MHPG. The metabolite has been identified as the sulfur conjugate of [^18F]4-MHPG based on in vitro incubations of the parent compound with a monkey liver cytosol fraction and the required cofactor 3′-phospho-adenosine-5′phosphosulfate (PAPS). After only 1 minute of in vitro incubation, approximately 70% of [^18F]4-MHPG was sulfur conjugated, and after 20 minutes of incubation, 100% was in the sulfur-conjugated form (FIG. 4B). Sulfur conjugation occurs at the meta-hydroxyl group (FIG. 4C). Without being bound by theory and without requiring an understanding of the mechanism to practice the technology, it is contemplated that rapid metabolism of [^18F]4F-MHPG is a reason for its low liver uptake. In comparison, the structurally similar carbon-11 compound, [^11C]guanyl-meta-octopamine (GMO), has a slower metabolic breakdown in monkey plasma, with a T1/2 for breakdown of approximately 13 minutes.

With `N=C(N)NCCc1ccc(F)c(O)c1` [[^18F]4F-MHPG] [4-[^18F]fluoro-meta-hydroxy-phenethylguanidine], the fraction sulfur conjugated result (after 1 minute of in vitro incubation) is given as “approximately 70%”. Also, the “fraction in the sulfur-conjugated form” value (after 20 minutes of incubation) is given as 100%.
